One assay has as its target HIV integrase (Human immunodeficiency virus type 1 group M subtype B, UniProt P04585). The assay is described as follows: integrase strand transfer assay (STA). It counts as biochemical. The conditions noted are these: integrase strand transfer; read-out: IC50 in the STA assay.
A further assay relates to HXB2 virus. In words: microbe, parasite or virus in culture. It counts as cell-based, HIV. To be noted: Human immunodeficiency virus 1, HXB2, HeLaP4-2, read-out: antiviral IC50 (SCIA-B). As for the experimental part: An assay for measuring the inhibition of acute HIV infection with HeLa P4-2 cells in a single cycle infectivity assay (SCIA-A) was conducted in accordance with Joyce, J. G., et al., J. Biol. Chem., 2002, 277, 45811, Hazuda, D. J. et al., Science, 2000, 287, 646, and Kimpton, J. et al, J. Virol. 1992, 66, 2232. Infectious virus was produced by transfecting 293T cells with HIV proviral DNA in which the integrase gene was derived from a IIIB isolate and the remainder of the HIV genome was derived from the NL4-3 isolate.
This assay B for measuring the inhibition of acute HIV infection with HeLa P4-2 cells in a single cycle infectivity assay (SCIA-B) is essentially the same as Assay A described above, except that HXB2 virus is employed instead of the IIIb isolate.

Structures can show the parent of a compound that is named as a salt. A value given as a limit tells only on which side of the number the result lay.

Usually IC50 stands for the midpoint of a concentration-inhibition curve. As for `CCOC(=O)c1c(O)c2cc(Oc3ccc(N)cc3)cnc2n(O)c1=O` [Example 89, Ethyl 6-(4-aminophenoxy)-1,4-dihydroxy-2-oxo-1,2-dihydro-1,8-naphthyridine-3-carboxylate], the IC50 is less than 50 µM on HIV integrase and less than 100 µM in the assay with HXB2 virus.
With `CS(=O)(=O)NCc1ccc(-c2cc(=O)n(O)c3ncccc23)cc1` [Example 189, N-[4-(1-hydroxy-2-oxo-1,2-dihydro-1,8-naphthyridin-4-yl)benzyl]methanesulfo-namide], the IC50 is less than 50 µM on HIV integrase and less than 100 µM in the assay with HXB2 virus.
In the same order, the values of `CN(C(=O)c1c(O)c2cccnc2n(O)c1=O)C1CCN(C(=O)OC(C)(C)C)C1` (stereo not drawn) [Example 10, tert-Butyl 3-[[(1,4-dihydroxy-2-oxo-1,2-dihydro-1,8-naphthyridin-3-yl)carbonyl](methyl)amino]pyrrolidine-1-carboxylate] are less than 50 µM and less than 100 µM.
For the compound `CCCCc1c(O)c2cccnc2n(O)c1=O` [Example 42, 3-Butyl-1,4-dihydroxy-1,8-naphthyridin-2(1H)-one], the figures for the IC50 at HIV integrase and in the assay with HXB2 virus were less than 50 µM and less than 100 µM, respectively.
In the same order, the values of `CN(C)C(=O)c1c(O)c2cccnc2n(O)c1=O` [Example 5, 1,4-Dihydroxy-N,N-dimethyl-2-oxo-1,2-dihydro-1,8-naphthyridine-3-carboxamide] are less than 50 µM and less than 100 µM.
As to `Nc1cccc(-c2ccc3c(c2)CN(c2cc(=O)n(O)c4ncccc24)CC3)c1` [Example 251, 4-[7-(3-aminophenyl)-3,4-dihydroisoquinolin-2(1H)-yl]-1-hydroxy-1,8-naphthyridin-2(1H)-one], the results for the IC50 on HIV integrase and in the assay on HXB2 virus were less than 50 µM and less than 100 µM, respectively.
For `O=C(c1cc(=O)n(O)c2ncccc12)N1CCc2ccccc2C1` [Example 247, 4-(3,4-dihydroisoquinolin-2(1H)-ylcarbonyl)-1-hydroxy-1,8-naphthyridin-2(1H)-one] the same measures were less than 50 µM and less than 100 µM.
In the case of `CCOC(=O)c1c(O)c2cc(Oc3ccc(N(CC)CC)cc3)cnc2n(O)c1=O` [Example 90, Ethyl 6-[4-(diethylamino)phenoxy]-1,4-dihydroxy-2-oxo-1,2-dihydro-1,8-naphthyridine-3-carboxylate], the IC50 at HIV integrase was less than 50 µM; with HXB2 virus, less than 100 µM.
For `NS(=O)(=O)c1cccc(-c2cc(=O)n(O)c3ncccc23)c1` [Example 192, 3-(1-hydroxy-2-oxo-1,2-dihydro-1,8-naphthyridin-4-yl)benzenesulfonamide] the same measures were less than 50 µM and less than 100 µM.
`CCOC(=O)c1c(-c2cc(CCc3ccccc3F)cc(-c3ccc(CN)cc3)c2)c2cccnc2n(O)c1=O` [Example 263, ethyl 4-[4′-aminomethyl-5-(2-fluorophenethyl)biphenyl-3-yl]1-hydroxy-2-oxo-1,2-dihydro-1,8-naphthyridine-3-carboxylate]: the IC50 is less than 50 µM on HIV integrase and less than 100 µM with HXB2 virus.
For `CN1C(=O)c2c(c3cccnc3n(O)c2=O)NC1c1cccc(Oc2ccccc2)c1` (stereo not drawn) [Example 218, 6-Hydroxy-3-methyl-2-(3-phenoxyphenyl)-2,3-dihydropyrimido[5,4-c]-1,8-naphthyridine-4,5(1H, 6H)dione] the same measures were less than 50 µM and less than 100 µM.
In the same order, the values of `COc1ccc(-c2c(O)c3cccnc3n(O)c2=O)cc1` [Example 31, 1,4-Dihydroxy-3-(4-methoxyphenyl)-1,8-naphthyridin-2(1H)-one] are less than 50 µM and less than 100 µM.
With `Cc1n[nH]c2c1c(=O)n(O)c1ncccc21` [Example 94, 5-Hydroxy-3-methyl-1,5-dihydro-4H-pyrazolo[4,3-c]-1,8-naphthyridin-4-one], the IC50 was less than 50 µM on HIV integrase and less than 100 µM in the assay with HXB2 virus.
In the same order, the values of `O=c1cc(NCc2cccc(CN3CCCCC3)c2)c2cccnc2n1O` [Example 153] are less than 50 µM and less than 100 µM.
In the same order, the values of `O=c1cc(Nc2ccccc2-c2ccccc2)c2cccnc2n1O` [Example 104, 4-(Biphenyl-2-ylamino)-1-hydroxy-1,8-naphthyridin-2(1H)-one] are less than 50 µM and less than 100 µM.
With `Nc1ccc(-c2ccc3c(c2)CN(c2cc(=O)n(O)c4ncccc24)CC3)cc1` [Example 254, 4-[7-(4-aminophenyl)-3,4-dihydroisoquinolin-2(1H)-yl]-1-hydroxy-1,8-naphthyridin-2(1H)-one], the IC50 at HIV integrase was less than 50 µM; in the assay on HXB2 virus, less than 100 µM.
As to `O=C(NCC1CCNC1)c1c(O)c2cccnc2n(O)c1=O` (stereo not drawn) [Example 25, 1,4-Dihydroxy-2-oxo-N-(pyrrolidin-3-ylmethyl)-1,2-dihydro-1,8-naphthyridine-3-carboxamide], the IC50 at HIV integrase was less than 50 µM; in the assay with HXB2 virus, less than 100 µM.
`O=C(NCc1ccccc1)c1c(O)c2cccnc2n(O)c1=O` [Example 19, N-benzyl-1,4-dihydroxy-2-oxo-1,2-dihydro-1,8-naphthyridine-3-carboxamide]: the IC50 on HIV integrase was less than 50 µM; in the assay with HXB2 virus, less than 100 µM.
In the same order, the values of `CCOC(=O)c1c(NCc2ccccc2)c2cccnc2n(O)c1=O` [Example 128, Ethyl 4-(benzylamino)-1-hydroxy-2-oxo-1,2-dihydro-1,8-naphthyridine-3-carboxylate] are less than 50 µM and less than 100 µM.
For `O=C(NCc1ccc(F)cc1)c1c(O)c2cccnc2n(O)c1=O` [Example 18, N-(4-Fluorobenzyl)-1,4-dihydroxy-2-oxo-1,2-dihydro-1,8-naphthyridine-3-carboxamide] the same measures were less than 50 µM and less than 100 µM.
For `O=c1cc(Nc2cccc(-c3ccccc3)c2)c2cccnc2n1O` [Example 105, 4-(Biphenyl-3-ylamino)-1-hydroxy-1,8-naphthyridin-2(1H)-one] the same measures were less than 50 µM and less than 100 µM.
Consider `Cc1cc(C)n(-c2cccc(-c3cc(=O)n(O)c4ncccc34)c2)n1` [Example 176], for which the figures for the IC50 on HIV integrase and in the assay with HXB2 virus were less than 50 µM and less than 100 µM, respectively.
With `COc1ccc(-c2ccncc2)cc1-c1cc(=O)n(O)c2ncccc12` [Example 185, 1-hydroxy-4-(2-methoxy-5-pyridin-4-ylphenyl)-1,8-naphthyridin-2(1H)-one], the results for the IC50 on HIV integrase and in the assay with HXB2 virus were less than 50 µM and less than 100 µM, respectively.
With `CCc1cnc2c(c1)c(O)c(-c1ccccc1)c(=O)n2O` [Example 73, 6-Ethyl-1,4-dihydroxy-3-phenyl-1,8-naphthyridin-2(1H)-one], the IC50 on HIV integrase is less than 50 µM; with HXB2 virus it was less than 100 µM.
For `N#Cc1ccc(-c2c(O)c3cccnc3n(O)c2=O)cc1` [Example 45, 4-(1,4-dihydroxy-2-oxo-1,2-dihydro-1,8-naphthyridin-3-yl)benzonitrile] the same measures were less than 50 µM and less than 100 µM.
In the same order, the values of `O=C(Nc1ccccc1OCc1ccccn1)c1c(O)c2cccnc2n(O)c1=O` [Example 15, 1,4-Dihydroxy-2-oxo-N-[2-(pyridin-2-ylmethoxy)phenyl]-1,2-dihydro-1,8-naphthyridine-3-carboxamide, hydrochloric acid salt] are less than 50 µM and more than 100 µM.
In the case of `O=c1c(-c2ccc(Cl)cc2)c(O)c2cccnc2n1O` [Example 37, 3-(4-Chlorophenyl)-1,4-dihydroxy-1,8-naphthyridin-2(1H)-one], the IC50 was less than 50 µM on HIV integrase and less than 100 µM with HXB2 virus.

The values are drawn from patent publication US20100056516A1 (priority 2006, published 2010).
